Assay [1] addresses T1, human complement factor D (Homo sapiens, UniProt P00746).
T1 construct: purchased R&D Systems 1824-SE
Put plainly: In vitro enzyme inhibition (Z-Lys-SBzl/DTNB absorbance assay). The class given is biochemical. Particulars: Complement Factor D (R&D Systems), substrate Z-Lys-SBzl, A405 nm; read-out: CFD IC50. Put shortly: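 Factor D (6.25 ng/μL before addition) preincubated 5 min RT with compound (8 points from 50 μM, 6-fold, 0.5% DMSO final) in 50 mM Tris/HCl pH 7.5, 1 M NaCl, then Z-Lys-SBzl/DTNB added (200 μM each before addition). A405 read kinetically every 30 s for 60 min; IC50 from variable-slope fit, controls with and without enzyme.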

The test system of assay [2] is alternative pathway (AP) hemolytic activity. Put plainly: AP hemolysis inhibition assay. It is filed as cell-based. Particulars: Erythrocyte, 1 h; Normal Human Serum, chicken or rabbit erythrocytes, 60 min at 37° C., OD 414 nm. How it is done:
The ability of the compounds disclosed herein to inhibit alternative pathway (AP) hemolytic activity was determined. Red blood cells (RBC), chicken or rabbit erythrocyctes (SbjBio), were washed three time using assay buffer containing 0.1% gelatin, 5 mM Veronal, 145 mM NaCl, 0.025% NaN3, 10 mM Mg-EGTA pH 7.3. In 100 μL reaction system, 1300 to 1500 ng/μL final concentration of Normal Human Serum (CompTech) was incubated with compound for 15 min at 37° C. Then 2×10^6 cells/well of chicken or rabbit erythrocytes in assay buffer were added and incubated for an additional 60 min at 37° C. Positive control (100% lysis) consists of serum and RBC, and negative control (0% lysis) consists of assay buffer and RBC only. Samples were centrifuged at 2000 g for 5 min, and supernatants collected. Optical density of the supernatant is monitored at 414 nm using Synergy 2 (BioTek). Percentage lysis in each sample is calculated relative to positive control (100% lysis).
Table 3 discloses the inhibitory activity of the compounds provided herein in the hemolysis assay.

The text below walks through data of patent US20190127366A1 (LifeSci Pharmaceuticals, Inc., priority 2015, published 2019).

As usually defined, the IC50 is the concentration that gives 50% inhibition. As usually defined, the EC50 is the concentration giving half of the maximal effect.

T1 sequence (P00746 26-253): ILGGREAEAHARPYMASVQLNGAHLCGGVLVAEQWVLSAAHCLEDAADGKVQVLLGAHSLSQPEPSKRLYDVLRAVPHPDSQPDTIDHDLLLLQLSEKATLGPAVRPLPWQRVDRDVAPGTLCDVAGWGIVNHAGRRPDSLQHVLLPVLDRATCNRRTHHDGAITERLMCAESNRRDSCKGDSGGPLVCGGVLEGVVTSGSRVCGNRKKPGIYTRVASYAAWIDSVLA

As for `NC(=O)c1nn(CC(=O)N2[C@@H]3CC[C@@H](C3)[C@H]2C(=O)Nc2cccc(Cl)n2)c2ccccc12` [Example 1, 1-(2-((1R,3S,4S)-3-((6-chloropyridin-2-yl)carbamoyl)-2-azabicyclo[2.2.1]heptan-2-yl)-2-oxoethyl)-1H-indazole-3-carboxamide], the IC50 in assay [1] is less than 100 nM. For the same molecule, in assay [2], the concentration for a half-maximal effect (EC50) was in the range of 100 to 1000 nM.
In the same order, the values of `NC(=O)n1nc(CC(=O)N2CC[C@H]2C(=O)NCc2cccc(Cl)c2F)c2ccccc21` [Example 188, (S)-3-(2-(2-((3-chloro-2-fluorobenzyl)carbamoyl)azetidin-l-yl)-2-oxoethyl)-1H-indazole-1-carboxamide] are less than 100 nM and 100 to 1000 nM.
As for `NC(=O)c1nn(CC(=O)N2[C@H](C(=O)NCc3cccc(Cl)c3F)C[C@@H]3CCC[C@@H]32)c2cc(F)ccc12` [Example 167, 1-(2-((2S,3aS,6aS)-2-((3-chloro-2-fluorobenzyl)carbamoyl)hexahydrocyclopenta[b]pyrrol-1(2H)-y1)-2-oxoethyl)-6-fluoro-1H-indazole-3-carboxamide], the IC50 in assay [1] is less than 100 nM. For the same molecule, the EC50 in assay [2] fell in the range of 100 to 1000 nM.
For `NC(=O)c1nn(CC(=O)N2[C@@H]3CC[C@@H](C3)[C@H]2C(=O)Nc2cccc(Cl)n2)c2ccc(C3CC3)cc12` [Example 56, 1-(2-((1R,3S,4S)-3-((6-chloropyridin-2-yl)carbamoyl)-2-azabicyclo[2.2.1]heptan-2-yl)-2-oxoethyl)-5-cyclopropyl-1H-indazole-3-carboxamide 2,2,2-trifluoroacetate] the same measures were 100 to 1000 nM and 100 to 1000 nM.
Consider `NC(=O)c1nn(CC(=O)N2[C@@H]3CC[C@@H](C3)[C@H]2C(=O)Nc2cc(C(=O)O)cc(Cl)n2)c2ccccc12` [Example 104, 2-((1R,3S,4S)-2-(2-(3-carbamoyl-1H-indazol-1-yl)acetyl)-2-azabicyclo[2.2.1]heptane-3-carboxamido)-6-chloroisonicotinic acid], for which the IC50 in assay [1] was less than 100 nM. For the same molecule, in assay [2], the EC50 was less than 100 nM.
With `COc1ccc(Cl)nc1NC(=O)[C@@H]1[C@H]2CC[C@H](C2)N1C(=O)Cn1nc(C(N)=O)c2ccccc21` [Example 96, 1-(2-((1R,3S,4S)-3-((6-chloro-3-methoxypyridin-2-yl)carbamoyl)-2-azabicyclo[2.2.1]heptan-2-yl)-2-oxoethyl)-1H-indazole-3-carboxamide], the IC50 in assay [1] was less than 100 nM. Also, the EC50 in assay [2] was less than 100 nM.
With `NC(=O)c1nn(CC(=O)N2C3CCC(C3)[C@H]2C(=O)Nc2cccc(Cl)n2)c2ccccc12` (stereo partly drawn) [Example 10, 1-(2-((3S)-3-((6-chloropyridin-2-yl)carbamoyl)-2-azabicyclo[2.2.1]heptan-2-yl)-2-oxoethyl)-1H-indazole-3-carboxamide], the half-maximal inhibitory concentration (IC50) in assay [1] is less than 100 nM. For the same molecule, in assay [2], the EC50 was in the range of 100 to 1000 nM.
Turning to `NC(=O)c1nn(CC(=O)N2[C@@H]3CC[C@@H](C3)[C@H]2C(=O)Nc2cc(CO)cc(Cl)n2)c2ccccc12` [Example 105, 1-(2-((1R,3S,4S)-3-((6-chloro-4-(hydroxymethyl)pyridin-2-yl)carbamoyl)-2-azabicyclo[2.2.1]heptan-2-yl)-2-oxoethyl)-1H-indazole-3-carboxamide], the IC50 in assay [1] fell in the range of 100 to 1000 nM.
Same read-out and setting: in the case of `COC(=O)Cc1ccc2c(c1)c(C(N)=O)nn2CC(=O)N1[C@@H]2CC[C@@H](C2)[C@H]1C(=O)NCc1cccc(Cl)c1F` [Example 130, methyl 2-(3-carbamoyl-1-(2-((1R,3S,4S)-3-((3-chloro-2-fluorobenzyl)carbamoyl)-2-azabicyclo[2.2.1]heptan-2-yl)-2-oxoethyl)-1H-indazol-5-yl)acetate] it was 100 to 1000 nM.
As for `NC(=O)c1cc(Cl)c(F)c(CNC(=O)[C@@H]2[C@H]3CC[C@H](C3)N2C(=O)Cn2nc(C(N)=O)c3ccccc32)c1` [Example 112, 1-(2-((1R,3S,4S)-3-((5-carbamoyl-3-chloro-2-fluorobenzyl)carbamoyl)-2-azabicyclo[2.2.1]heptan-2-yl)-2-oxoethyl)-1H-indazole-3-carboxamide], the IC50 in assay [1] was 1000 to 10000 nM.
With `NC(=O)c1nn(CC(=O)N2CCNC[C@H]2C(=O)Nc2cccc(Cl)n2)c2ccccc12` [Example 26, (S)-1-(2-(2-((6-chloropyridin-2-yl)carbamoyl)piperazin-1-yl)-2-oxoethyl)-1H-indazole-3-carboxamide], the IC50 in assay [1] is more than 10000 nM.
Same read-out and setting: in the case of `NC(=O)c1nn(CC(=O)N2[C@@H]3CC[C@@H](C3)[C@H]2C(=O)NCc2ccc3[nH]cc(Cl)c3c2F)c2ccccc12` [Example 47, 1-(2-((1R,3S,4S)-3-(((3-chloro-4-fluoro-1H-indol-5-yl)methyl)carbamoyl)-2-azabicyclo[2.2.1]heptan-2-yl)-2-oxoethyl)-1H-indazole-3-carboxamide] it was more than 10000 nM.
Still for that read-out and setting: to `NC(=O)c1nn(CC(=O)N2[C@@H]3CC[C@@H](C3)[C@H]2C(=O)NCc2cnc3[nH]cc(Cl)c3c2)c2ccccc12` [Example 48, 1-(2-((1R,3S,4S)-3-(((3-chloro-1H-pyrrolo[2,3-b]pyridin-5-yl)methyl)carbamoyl)-2-azabicyclo[2.2.1]heptan-2-yl)-2-oxoethyl)-1H-indazole-3-carboxamide] belongs more than 10000 nM.
On the same count and under the same terms, to `O=C(NCCO)c1nn(CC(=O)N2[C@@H]3CC[C@@H](C3)[C@H]2C(=O)Nc2cccc(Cl)n2)c2ccccc12` [Example 89, 1-(2-((1R,3S,4S)-3-((6-chloropyridin-2-yl)carbamoyl)-2-azabicyclo[2.2.1]heptan-2-yl)-2-oxoethyl)-N-(2-hydroxyethyl)-1H-indazole-3-carboxamide] belongs 1000 to 10000 nM; to `NC(=O)c1nn(CC(=O)N2[C@H](C(=O)Nc3ccnc(Cl)c3)C[C@@H]3CCC[C@@H]32)c2ccccc12` [Example 163, 1-(2-((2S,3aS,6aS)-2-((2-chloropyridin-4-yl)carbamoyl)hexahydrocyclopenta[b]pyrrol-1(2H)-yl)-2-oxoethyl)-1H-indazole-3-carboxamide], more than 10000 nM; to `NC(=O)c1nn(CC(=O)N2CCOC[C@H]2C(=O)Nc2cccc(C(F)(F)F)n2)c2ccccc12` [Example 23, (S)-4-(2-(3-carbamoyl-1H-indazol-1-yl)acetyl)-N-(6-(trifluoromethyl)pyridin-2-yl)morpholine-3-carboxamide], 1000 to 10000 nM.
For the molecule `NC(=O)c1nn(CC(=O)N2[C@H](C(=O)O)C[C@H]2C(=O)NCc2cccc(Cl)c2F)c2ccccc12` (relative stereo) [Example 195, trans-1-(2-(3-carbamoyl-1H-indazol-1-yl)acetyl)-4-((3-chloro-2-fluorobenzyl)carbamoyl)azetidine-2-carboxylic acid], the IC50 in assay [1] was 1000 to 10000 nM.
The same measure, in the same setting: in the case of `N#Cc1cc(Cl)nc(NC(=O)[C@@H]2[C@H]3CC[C@H](C3)N2C(=O)Cn2nc(C(N)=O)c3ccccc32)c1` [Example 102, 1-(2-((1R,3S,4S)-3-((6-chloro-4-cyanopyridin-2-yl)carbamoyl)-2-azabicyclo[2.2.1]heptan-2-yl)-2-oxoethyl)-1H-indazole-3-carboxamide] it was 100 to 1000 nM.
Still for that read-out and setting: in the case of `CC(=O)c1nc(CC(=O)N2CC[C@H]2C(=O)NCc2cccc(Cl)c2F)n2ccccc12` [Example 192, (S)-1-(2-(1-acetylimidazo[1,5-a]pyridin-3-yl)acetyl)-N-(3-chloro-2-fluorobenzyl)azetidine-2-carboxamide] it was 1000 to 10000 nM.
On to `N#Cc1ccc(Cl)c(F)c1CNC(=O)[C@@H]1[C@H]2CC[C@H](C2)N1C(=O)Cn1nc(C(N)=O)c2ccccc21` [Example 119, 1-(2-((1R,3S,4S)-3-((3-chloro-6-cyano-2-fluorobenzyl)carbamoyl)-2-azabicyclo[2.2.1]heptan-2-yl)-2-oxoethyl)-1H-indazole-3-carboxamide], for which, in assay [1], the IC50 fell in the range of 1000 to 10000 nM.
On the same count and under the same terms, in the case of `NC(=O)c1nn(CC(=O)N2C(C(=O)NCc3cccc(Cl)n3)[C@@H]3C[C@@H](O)[C@H]2[C@H]3O)c2ccccc12` (stereo partly drawn) [Example 154, 1-(2-((1S,4S,6R,7S)-3-(((6-chloropyridin-2-yl)methyl)carbamoyl)-6,7-dihydroxy-2-azabicyclo[2.2.1]heptan-2-yl)-2-oxoethyl)-1H-indazole-3-carboxamide] it was 1000 to 10000 nM; in that of `CNC(=O)c1nn(CC(=O)N2[C@@H]3CC[C@@H](C3)[C@H]2C(=O)Nc2cccc(Cl)n2)c2ccccc12` [Example 88, 1-(2-((1R,3S,4S)-3-((6-chloropyridin-2-yl)carbamoyl)-2-azabicyclo[2.2.1]heptan-2-yl)-2-oxoethyl)-N-methyl-1H-indazole-3-carboxamide], 1000 to 10000 nM.
For `NC(=O)c1ccc2c(C(N)=O)nn(CC(=O)N3[C@@H]4CC[C@@H](C4)[C@H]3C(=O)Nc3cccc(Cl)n3)c2c1` [Example 124, 1-(2-((1R,3S,4S)-3-((6-chloropyridin-2-yl)carbamoyl)-2-azabicyclo[2.2.1]heptan-2-yl)-2-oxoethyl)-1H-indazole-3,6-dicarboxamide], the IC50 in assay [1] was 100 to 1000 nM.
